Test results reported in publication PMC6780721, “GOBP1 Plays a Key Role in Sex Pheromones and Plant Volatiles Recognition in Yellow Peach Moth, Conogethes punctiferalis (Lepidoptera: Crambidae)” (Insects, 2019).
Where two headings read alike, the source gives them in different places.

What was measured:
GOBP2 = GOBP2 (Conogethes punctiferalis, UniProt A0A146JYY2); assay: Fluorescence competitive binding assay with 1-NPN, recombinant GOBP2; settings: for Intensity (%) GOBP2: 1-NPN fluorescence remaining in competitive binding, 2 µM protein, 2 µM 1-NPN, triplicates
From the text: (§1) Signal peptides were removed from complete ORF sequences of both genes and primers were designed, using antennal cDNA as the templates the GOBP1 and 2 were amplified and cloned using pEASY-T vector (TransGen Biotech, Beijing, China). The sense and antisense primers designed for GOBP1 and GOBP2. GOBP1 sense primers: 5′-[…]-3′ and antisense primer: 5′-[…]-3′ (BamH I and Hind III restriction sites are underlined); GOBP2 sense primer: 5′-[…]-3′ and antisense primer: 5′-[…]-3′ (EcoR I and Hind III restriction sites are underlined). The expected sequences were purified and cloned into the bacterial expression vector pET-30a (+) digested with the same enzymes. Then the plasmid was transformed into BL21 (DE3) competent cells (TransGen, Beijing, China) and the positive clone was inoculated in a liquid LB medium (4 L/protein) induced by 1 mM isopropyl-b-d-thiogalactoside (IPTG, Coollaber Science and Technology, Beijing, China) and placed in shaking incubator at 37 °C for 6 h. The induced bacterial cells were harvested from volume of 4 L liquid LB medium and centrifuged at 4 °C for 10 min (10,000 rpm). The pellets were subjected to ultrasonication and the recombinant GOBPs protein were purified by the Ni^2+-IDA column (His tagged) with a gradient concentration imidazole washing. The precipitate was resolved using 8 M carbamide and proteins were dialyzed in PBS buffer (pH 7.4) to remove the remaining chemical impurities from the protein. Purified protein concentrations of GOBP1 and GOBP2 was determined by the method of Bradford using BSA as standard The western blot method was performed to analyze the correct expression. […] The gel was sandwiched with a polyvinylidene fluoride (PVDF) membrane and sample in the gel was transferred to the PVDF (electrophoresis; 100 V, 200mA, 1 h). The film was washed four times using PBST (1% Tween-20 in 0.5 M Phosphate-buffered saline). 5% skim milk powder in PBST was used as blocking buffer. The PVDF membrane was incubated in primary antibody His (1:1000) and placed on shaker for overnight at 4 °C. The membrane was washed again using PBST and treated with second antibody sheep anti-rabbit antibody (1:5000) at 37 °C for 1 h. A final wash was given to the membrane and developed in ImageQuant LAS 4000 (GE, Pittsburgh, PA, USA) using western optimized HRP (horseradish peroxidase) reagent (Pierce, ELC kit, Thermoscientific, USA).
(§2) The fluorescence intensity was recorded on a FluoroMax-4 spectrophotometer (Horiba Scientific, Piscataway, NJ, USA) at room temperature using a 1 cm light path fluorimeter quartz cuvette. The fluorescent probe N-phenyl-1-naphthylamine (1-NPN) and all the tested chemicals were dissolved in HPLC purity methanol. The final concentration was prepared 2 mM. […] The fluorescence of 1-NPN was excited at 337 nm and emission spectra were recorded between […]. […] The GraphPad Prism 5 (GraphPad Software, Inc. San Diego, CA) was used to estimate the K1-NPN (KD of complex protein /1-NPN) values by nonlinear regression for a unique site of binding. It was assumed that the proteins were 100% active, with a stoichiometry of 1:1 (protein:ligand) at saturation. […] In the equation, [1-NPN] in the free concentration of 1-NPN, and K1-NPN is the dissociation constant of the complex protein/1-NPN.

GOBP1 = GOBP1 (Conogethes punctiferalis, UniProt A0A2H4FXX2); assay: Fluorescence competitive binding assay with 1-NPN, recombinant GOBP1; settings: for Intensity (%) GOBP1: 1-NPN fluorescence remaining in competitive binding, 2 µM protein, 2 µM 1-NPN, triplicates; for interaction with GOBP1 (in words): fluorescence binding assays, sex pheromones
From the text: as §1, §2

[1] = dissociation constant calculated from IC50: KD = [IC50]/(1+[1-NPN]/K1-NPN), pH 7.4, mean ± SD, read-out: KD (μM) GOBP2
[2] = ligand concentration halving initial 1-NPN fluorescence, pH 7.4, mean ± SD, read-out: IC50 (μM) GOBP2
[3] = dissociation constant calculated from IC50: KD = [IC50]/(1+[1-NPN]/K1-NPN), pH 7.4, mean ± SD, read-out: KD (μM) GOBP1
[4] = ligand concentration halving initial 1-NPN fluorescence, pH 7.4, mean ± SD, read-out: IC50 (μM) GOBP1

Sequence of GOBP1 (A0A2H4FXX2 entry or part of it): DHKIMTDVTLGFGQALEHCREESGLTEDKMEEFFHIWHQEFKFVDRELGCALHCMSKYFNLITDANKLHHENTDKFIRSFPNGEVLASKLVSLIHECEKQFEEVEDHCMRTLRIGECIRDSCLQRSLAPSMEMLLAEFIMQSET
Sequence of GOBP2 (A0A146JYY2 entry or part of it): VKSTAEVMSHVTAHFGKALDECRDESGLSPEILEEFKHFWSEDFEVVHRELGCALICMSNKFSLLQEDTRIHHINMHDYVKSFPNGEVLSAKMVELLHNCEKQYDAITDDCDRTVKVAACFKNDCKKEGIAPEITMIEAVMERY

Structure (SMILES) | IC50 (GOBP2) [µM] | Kd (GOBP2) [µM] | Intensity (%) GOBP2 (GOBP2; pH 7.4, mean ± SD) [%] | IC50 (GOBP1) [µM] | Kd (GOBP1) [µM] | Intensity (%) GOBP1 (GOBP1; pH 7.4, mean ± SD) [%] | Kd (GOBP2; [1]) [µM] | IC50 (GOBP2; [2]) [µM] | Kd (GOBP1; [3]) [µM] | IC50 (GOBP1; [4]) [µM] | interaction with GOBP1 (in words) (GOBP1)
O=Cc1ccccc1 [Benzaldehyde] | 77.1 ± 1.4 | 31.9 ± 3.03 | 94.76 ± 7.32 | 20.6 ± 1.31 | 8.79 ± 0.59 | 83.58 ± 6.61 | – | – | – | – | –
C=CC(C)(O)CCC=C(C)C (centres unmarked) [Linalool] | 44.8 ± 1.16 | 18.5 ± 0.48 | 91.86 ± 0.71 | 15.7 ± 1.61 | 6.7 ± 0.69 | 74.52 ± 2.42 | – | – | – | – | –
C=C1CC/C=C(\C)CC[C@@H]2[C@@H]1CC2(C)C [Caryophllene] | – | – | 89.93 ± 2.15 | – | – | 68.98 ± 3.16 | 8.67 ± 1.12 | 21 ± 2.1 | 3.88 ± 0.91 | 9.09 ± 2.42 | –
C=C(C)[C@H]1CC=C(C)CC1 [Limonene] | – | – | 92.62 ± 1.21 | – | – | 43.27 ± 2.47 | 14.7 ± 2.78 | 35.5 ± 1.14 | 1.54 ± 0.39 | 3.62 ± 0.89 | –
CCCCCO [1-Amyl alcohol] | – | – | 96.54 ± 1.39 | – | – | 95.2 ± 1.12 | – | 98.7 ± 2.3 | 14.3 ± 1.74 | 33.5 ± 1.02 | –
c1ccc(Nc2cccc3ccccc23)cc1 [1-NPN, N-phenyl-1-naphthylamine, reference compound] | – | 0.7 ± 0.38 | – | – | 0.74 ± 0.41 | – | – | – | – | – | –
CCCCCCC=O [Heptanal] | – | – | 96.80 ± 1.33 | – | – | 75.78 ± 5.17 | 23.1 ± 4.68 | 56 ± 1.54 | 5.76 ± 0.64 | 13.5 ± 3.22 | –
CC(C)=CCC/C(C)=C/CC/C(C)=C/CO [Farnesol] | – | – | 55.64 ± 1.78 | – | – | 41.45 ± 2.51 | 1.64 ± 0.03 | 3.98 ± 0.36 | 0.35 ± 0.04 | 0.83 ± 0.09 | –
CCCCC/C=C/CCCCCCCCC=O [E10-16:Ald, (E)-10-hexadecenal] | – | – | 84.05 ± 2.25 | – | – | 47.29 ± 7.52 | 8.86 ± 0.93 | 21.4 ± 4.15 | 2.09 ± 0.45 | 4.9 ± 0.54 | can interact
CCCCC/C=C\CCCCCCCCC=O [Z10-16:Ald, (Z)-10-hexadecenal] | – | – | 58.63 ± 2.72 | – | – | 20.88 ± 0.48 | 3.58 ± 0.62 | 8.65 ± 1.87 | 1.2 ± 0.09 | 2.82 ± 0.44 | can interact
CCCCCCCCCCC=O [Undecanal] | – | – | 98.12 ± 1.92 | – | – | 78.33 ± 2.89 | 39.9 ± 9.7 | 96.7 ± 2.41 | 7.17 ± 0.67 | 16.8 ± 2.41 | –
CCCCCC=O [n-Hexanal] | – | – | 96.44 ± 1.50 | – | – | 45.50 ± 4.58 | 28.1 ± 0.62 | 68.1 ± 3.7 | 3.11 ± 0.71 | 7.31 ± 1.43 | –
CC/C=C\CCO [Cis-3-hexen-1-ol] | 51.3 ± 1.6 | 21.2 ± 1.14 | 96.93 ± 0.99 | 78.63 ± 0.23 | 33.5 ± 1.21 | 94.99 ± 1.78 | – | – | – | – | –
C=C1CCC2CC1C2(C)C (stereo not drawn) [β-Pinene] | 33.7 ± 3.29 | 13.9 ± 1.36 | 97.15 ± 3.95 | 9.94 ± 2.72 | 4.24 ± 0.69 | 66.21 ± 2.96 | – | – | – | – | –
CCCCCCCCCCCCCCCC=O [Hexadecanal] | – | – | 67.94 ± 1.79 | – | – | 48.64 ± 4.35 | 8.7 ± 0.74 | 21.1 ± 1.83 | 0.55 ± 0.08 | 1.29 ± 0.14 | –
CCCCCCO [n-Hexanol] | – | – | 94.24 ± 1.82 | – | – | 97.23 ± 0.89 | – | 95.2 ± 1.68 | 25.7 ± 0.43 | 60.4 ± 2.44 | –
CC1=CCC2CC1C2(C)C (stereo not drawn) [α-Pinene] | 67.9 ± 4.66 | 28.1 ± 4.06 | 98.57 ± 1.13 | 11.1 ± 3.47 | 4.73 ± 0.48 | 64.96 ± 3.26 | – | – | – | – | –
CCCCCCCCCCCCCCO [1-Tetradecanol] | 54 ± 2.56 | 22.3 ± 1.89 | 85.52 ± 1.47 | 4.81 ± 0.72 | 2.05 ± 0.43 | 45.8 ± 0.56 | – | – | – | – | –
CCCCCCCCC=O [Nonanal] | – | – | 96.99 ± 2.63 | – | – | 71.04 ± 8.80 | 38.3 ± 1.09 | 92.8 ± 3.83 | 5.69 ± 0.36 | 13.3 ± 2.41 | –
